According to patent publication US20200405697A1, “Antitumor Agent” (Taiho Pharmaceutical Co., Ltd, priority 2017, published 2020):

The molecules below were run against T1, human RNR (histidine tagged human M1 and human M2 proteins) (Homo sapiens, UniProt P23921) (assay: Human RNR inhibition effect (dCDP formation from CDP)). Details: 10 μM CDP, 37° C. for 30 minutes, read-out: RNR inhibitory activity IC50.
T1 construct: made in house; host or cells: Escherichia coli
T1 sequence (P23921 1-792): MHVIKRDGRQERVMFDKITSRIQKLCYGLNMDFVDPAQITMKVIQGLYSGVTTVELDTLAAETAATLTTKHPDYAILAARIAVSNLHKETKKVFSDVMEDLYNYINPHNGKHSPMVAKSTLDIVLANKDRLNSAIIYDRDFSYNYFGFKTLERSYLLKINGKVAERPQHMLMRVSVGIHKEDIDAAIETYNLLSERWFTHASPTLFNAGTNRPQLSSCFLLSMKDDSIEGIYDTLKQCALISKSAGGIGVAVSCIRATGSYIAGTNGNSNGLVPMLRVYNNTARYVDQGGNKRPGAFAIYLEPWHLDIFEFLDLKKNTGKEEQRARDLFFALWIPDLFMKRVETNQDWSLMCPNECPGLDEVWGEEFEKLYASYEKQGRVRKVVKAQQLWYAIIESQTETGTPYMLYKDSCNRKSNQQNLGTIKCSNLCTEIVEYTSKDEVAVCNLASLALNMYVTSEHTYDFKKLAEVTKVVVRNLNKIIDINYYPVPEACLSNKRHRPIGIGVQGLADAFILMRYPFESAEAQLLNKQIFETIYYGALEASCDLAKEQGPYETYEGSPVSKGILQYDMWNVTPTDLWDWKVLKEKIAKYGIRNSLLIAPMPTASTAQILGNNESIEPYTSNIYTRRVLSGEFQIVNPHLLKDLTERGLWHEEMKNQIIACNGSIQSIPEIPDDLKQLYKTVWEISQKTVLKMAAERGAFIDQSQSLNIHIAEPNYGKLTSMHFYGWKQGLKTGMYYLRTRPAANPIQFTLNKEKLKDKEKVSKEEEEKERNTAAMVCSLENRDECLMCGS
Assay type: biochemical
Procedure, shortened: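 His-tagged human M1 (isoform 1) and N-terminal 59-aa-truncated M2 (isoform 2), E. coli-expressed, Ni-purified, preincubated 20 min with compound (1% DMSO). Reaction with 10 μM CDP, 2 mM ATP, 0.24 mM NADPH, 6 mM DTT, 4 mM Mg acetate, 100 mM KCl, 50 mM HEPES pH 7.2, 30 min at 37° C. dCDP formed quantified by reverse-phase HPLC after heat stop.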

For `COc1cc(Cl)ccc1S(=O)(=O)N[C@H](c1n[nH]c(=O)o1)[C@H](C)c1c(F)ccc(-c2cnn(C3CC3)c2)c1C` [Example 311, 4-chloro-N-((1S,2R)-2-(3-(1-cyclopropyl-1H-pyrazol-4-yl)-6-fluoro-2-methylphenyl)-1-(5-oxo-4,5-dihydro-1,3,4-oxadiazol-2-yl)propyl)-2-methoxybenzenesulfonamide], which IC50 is on record?
Its IC50 is 220 nM.

`Cc1ccc(F)c([C@@H](C)[C@H](NS(=O)(=O)c2ccc(F)c(C(C)(C)O)c2F)c2n[nH]c(=O)o2)c1C` [Example 186, 2,4-difluoro-N-((1S,2R)-2-(6-fluoro-2,3-dimethylphenyl)-1-(5-oxo-4,5-dihydro-1,3,4-oxadiazol-2-yl)propyl)-3-(2-hydroxypropan-2-yl)benzenesulfonamide] was tested. Which IC50 did it give?
Its IC50 is 90 nM.

`COc1cc(N)ccc1S(=O)(=O)N[C@H](c1n[nH]c(=O)o1)[C@H](C)c1c(F)ccc2ccccc12` [Example 265, 4-amino-N-((1S,2R)-2-(2-fluoronaphthalen-1-yl)-1-(5-oxo-4,5-dihydro-1,3,4-oxadiazol-2-yl)propyl)-2-methoxybenzenesulfonamide] was tested. Which IC50 did it give?
The IC50 was 260 nM.

How did the IC50 turn out when `CC(=O)OC1(C(F)(F)F)CCOc2c(S(=O)(=O)N[C@H](c3n[nH]c(=O)o3)[C@H](C)c3c(F)ccc(C)c3C)ccc(Cl)c21` (stereo partly drawn) [Example 123, 5-chloro-8-(N-((1S,2R)-2-(6-fluoro-2,3-dimethylphenyl)-1-(5-oxo-4,5-dihydro-1,3,4-oxadiazol-2-yl)propyl)sulfamoyl)-4-(trifluoromethyl)chroman-4-ylacetate] was run?
The IC50 was 110 nM.

With `Cc1ccc(F)c([C@@H](C)[C@H](NS(=O)(=O)c2cc3c(cc2C(=O)O)OCCO3)c2n[nH]c(=O)o2)c1C` [Example 223, 7-(N-((1S,2R)-2-(6-fluoro-2,3-dimethylphenyl)-1-(5-oxo-4,5-dihydro-1,3,4-oxadiazol-2-yl)propyl)sulfamoyl)-2,3-dihydrobenzo[b][1,4]dioxin-6-Carboxylic Acid] as the molecule, how does the IC50 read?
Its IC50 is 790 nM.

How did the IC50 turn out when `Cc1cccc2cccc([C@@H](C)[C@H](NS(=O)(=O)c3ccc(Cl)c4c3OCCC4(F)F)c3n[nH]c(=O)o3)c12` [Example 81, 5-chloro-4,4-difluoro-N-((1S,2R)-2-(8-methylnaphthalen-1-yl)-1-(5-oxo-4,5-dihydro-1,3,4-oxadiazol-2-yl)propyl)chroman-8-sulfonamide] was run?
Its IC50 is 280 nM.

`Cc1ccc(F)c([C@@H](C)[C@H](NS(=O)(=O)c2ccc3[nH]c(=O)c(=O)[nH]c3c2)c2n[nH]c(=O)o2)c1C` [Example 172, N-((1S,2R)-2-(6-fluoro-2,3-dimethylphenyl)-1-(5-oxo-4,5-dihydro-1,3,4-oxadiazol-2-yl)propyl)-2,3-dioxo-1,2,3,4-tetrahydroquinoxaline-6-sulfonamide] was tested. Which IC50 did it give?
The IC50 was 820 nM.

Which IC50 does the source give for `COc1cc(Cl)ccc1S(=O)(=O)N[C@H](c1n[nH]c(=O)o1)[C@H](C)c1c(F)ccc(-c2cc[nH]n2)c1C` [Example 301, 4-chloro-N-((1S,2R)-2-(6-fluoro-2-methyl-3-(1H-pyrazol-3-yl)phenyl)-1-(5-oxo-4,5-dihydro-1,3,4-oxadiazol-2-yl)propyl)-2-methoxybenzenesulfonamide] here?
The IC50 was 290 nM.

With `Cc1ccc(F)c([C@@H](C)[C@H](NS(=O)(=O)c2c(F)cccc2F)c2n[nH]c(=O)o2)c1C` [Example 110, 2,6-difluoro-N-((1S,2R)-2-(6-fluoro-2,3-dimethylphenyl)-1-(5-oxo-4,5-dihydro-1,3,4-oxadiazol-2-yl)propyl)benzenesulfonamide] as the molecule, how does the IC50 read?
Its IC50 is 960 nM.

How did the IC50 turn out when `CC(O)c1cc(S(=O)(=O)N[C@H](c2n[nH]c(=O)o2)[C@H](C)c2cccc3c2CCC3)ccc1Cl` (stereo partly drawn) [Example 231, 4-chloro-N-((1S,2R)-2-(2,3-dihydro-1H-inden-4-yl)-1-(5-oxo-4,5-dihydro-1,3,4-oxadiazol-2-yl)propyl)-3-(1-hydroxyethyl)benzensulfonamide] was run?
Its IC50 is 650 nM.

With `COc1cc(Cl)ccc1S(=O)(=O)N[C@H](c1n[nH]c(=O)o1)[C@H](C)c1c(F)ccc(-c2cnn(C3CCC3)c2)c1C` [Example 312, 4-chloro-N-((1S,2R)-2-(3-(1-cyclobutyl-1H-pyrazol-4-yl)-6-fluoro-2-methylphenyl)-1-(5-oxo-4,5-dihydro-1,3,4-oxadiazol-2-yl)propyl)-2-methoxybenzenesulfonamide] as the molecule, how does the IC50 read?
The IC50 was 220 nM.

Which IC50 does the source give for `COc1cc(Cl)ccc1S(=O)(=O)N[C@H](c1noc(=O)[nH]1)[C@H](C)c1c(F)ccc(C)c1C` [Example 349, 4-chloro-N-((1S,2R)-2-(6-fluoro-2,3-dimethylphenyl)-1-(5-oxo-4,5-dihydro-1,2,4-oxadiazol-3-yl)propyl)-2-methoxybenzenesulfonamide] here?
The IC50 was 250 nM.

For `COC(=O)c1c(Cl)ccc(S(=O)(=O)N[C@H](c2n[nH]c(=S)o2)[C@H](C)c2cccc3c2CCC3)c1Cl` [Example 333, methyl 2,6-dichloro-3-(N-((1S,2R)-2-(2,3-dihydro-1H-inden-4-yl)-1-(5-thioxo-4,5-dihydro-1,3,4-oxadiazol-2-yl)propyl)sulfamoyl)benzoate], which IC50 is on record?
Its IC50 is 310 nM.

With `Cc1ccc(F)c([C@@H](C)[C@H](NS(=O)(=O)c2ccccc2C#N)c2n[nH]c(=O)o2)c1C` [Example 98, 2-cyano-N-((1S,2R)-2-(6-fluoro-2,3-dimethylphenyl)-1-(5-oxo-4,5-dihydro-1,3,4-oxadiazol-2-yl)propyl)benzenesulfonamide] as the molecule, how does the IC50 read?
The IC50 was 640 nM.

`COc1cc(Cl)ccc1S(=O)(=O)N[C@H](c1n[nH]c(=O)o1)[C@H](C)c1c(F)ccc(-c2c[nH]nc2C)c1C` [Example 308, 4-chloro-N-((1S,2R)-2-(6-fluoro-2-methyl-3-(3-methyl-1H-pyrazol-4-yl)phenyl)-1-(5-oxo-4,5-dihydro-1,3,4-oxadiazol-2-yl)propyl)-2-methoxybenzenesulfonamide] was tested. Which IC50 did it give?
Its IC50 is 180 nM.

`COc1nc(Cl)ccc1S(=O)(=O)N[C@H](c1n[nH]c(=O)o1)[C@H](C)c1c(F)ccc(C)c1C` [Example 148, 6-chloro-N-((1S,2R)-2-(6-fluoro-2,3-dimethylphenyl)-1-(5-oxo-4,5-dihydro-1,3,4-oxadiazol-2-yl)propyl)-2-methoxypyridine-3-sulfonamide] was tested. Which IC50 did it give?
The IC50 was 100 nM.

For `C[C@H](c1c(F)ccc2ccccc12)[C@H](NS(=O)(=O)c1ccc(Cl)cc1C(N)=O)c1n[nH]c(=O)o1` [Example 6, 5-chloro-2-(N-((1S,2R)-2-(2-fluoronaphthalen-1-yl)-1-(5-oxo-4,5-dihydro-1,3,4-oxadiazol-2-yl)propyl)sulfamoyl)benzamide], which IC50 is on record?
The IC50 was 110 nM.

`[2H]C([2H])([2H])C1(O)CCOc2c(S(=O)(=O)N[C@H](c3n[nH]c(=O)o3)[C@H](C)c3c(F)ccc(Cl)c3C)ccc(Cl)c21` (single isomer, unassigned) [Example 228B] was tested. Which IC50 did it give?
Its IC50 is 140 nM.

With `Cc1ccc(F)c([C@@H](C)[C@H](NS(=O)(=O)c2ccc(Cl)c(C#N)n2)c2n[nH]c(=O)o2)c1C` [Example 105, 5-chloro-6-cyano-N-((1S,2R)-2-(6-fluoro-2,3-dimethylphenyl)-1-(5-oxo-4,5-dihydro-1,3,4-oxadiazol-2-yl)propyl)pyridine-2-sulfonamide] as the molecule, how does the IC50 read?
The IC50 was 160 nM.

Which IC50 does the source give for `Cc1ccc(F)c([C@@H](C)[C@H](NS(=O)(=O)c2cccc3c2OCCN3C(=O)C2CC2)c2n[nH]c(=O)o2)c1C` [Example 99, 4-(cyclopropanecarbonyl)-N-((1S,2R)-2-(6-fluoro-2,3-dimethylphenyl)-1-(5-oxo-4,5-dihydro-1,3,4-oxadiazol-2-yl)propyl)-3,4-dihydro-2H-benzo[b][1,4]oxazine-8-sulfonamide] here?
Its IC50 is 290 nM.

How did the IC50 turn out when `COc1cc(Br)ccc1S(=O)(=O)N[C@H](c1n[nH]c(=O)o1)[C@H](C)c1cccc2c1CCC2` [Example 137, 4-bromo-N-((1S,2R)-2-(2,3-dihydro-1H-inden-4-yl)-1-(5-oxo-4,5-dihydro-1,3,4-oxadiazol-2-yl)propyl)-2-methoxybenzenesulfonamide] was run?
The IC50 was 590 nM.

For `Cc1ccc(F)c([C@@H](C)[C@H](NS(=O)(=O)c2cccc3c2OCCN3)c2n[nH]c(=O)o2)c1C` [Example 280, N-((1S,2R)-2-(6-fluoro-2,3-dimethylphenyl)-1-(5-oxo-4,5-dihydro-1,3,4-oxadiazol-2-yl)propyl)-3,4-dihydro-2H-benzo[b][1,4]oxazine-8-sulfonamide], which IC50 is on record?
The IC50 was 420 nM.

For `COc1cc(Cl)ccc1S(=O)(=O)N[C@H](c1n[nH]c(=O)o1)[C@H](C)c1c(F)ccc(-c2cncc(C(=O)N3CCOCC3)c2)c1C` [Example 323, 4-chloro-N-((1S,2R)-2-(6-fluoro-2-methyl-3-(5-(morpholine-4-carbonyl)pyridin-3-yl)phenyl)-1-(5-oxo-4,5-dihydro-1,3,4-oxadiazol-2-yl)propyl)-2-methoxybenzenesulfonamide], which IC50 is on record?
Its IC50 is 420 nM.
